Test results taken from patent publication US20240391948A1, “NOVEL COMPOUND THAT INHIBITS TNF-ALPHA GENERATION AND INFLAMMASOME ACTIVITY AND PREPARATION METHOD THEREFOR” (SHAPERON INC., priority 2021, published 2024).

Experiments:
Format in all cases: cell-based
[1] = tested on: U937 cells (human monocytic cell line); test: BzATP-induced IL-1β secretion inhibition in PMA-differentiated U937 cells; details: U-937, U937 cells differentiated with PMA, read-out: IL-1β production inhibition grade (IC50)
In short: (§1)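 Inhibition is given as IC50 (μM) in A-D bands, using distinct thresholds for TNF-α and for IL-1β. Secretion followed Pam2CSK4 stimulation (TNF-α) or BzATP stimulation (IL-1β) of compound-pretreated, PMA-differentiated U937 macrophages.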

[2] = tested on: J774A.1 (Mouse BALB/c monocyte macrophage cell line) cells; test: LPS+ATP-induced IL-1β secretion inhibition in J774A.1 cells; details: J774.A1, 1 μM compound, graded compared to taurodeoxycholic acid (positive control), read-out: IL-1β production inhibition grade
In short: (§2)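 Grades (A >100%, B 50–100%, C 20–50%, D <20%) express cytokine suppression by 1 μM compound relative to taurodeoxycholic acid. LPS-induced TNF-α and LPS+ATP-induced IL-1β secretion were measured in murine J774A.1 macrophage cells.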

[3] = tested on: J774A.1 (Mouse BALB/c monocyte macrophage cell line) cells; test: LPS-induced TNF-α secretion inhibition in J774A.1 cells; details: J774.A1, 1 μM compound, graded compared to taurodeoxycholic acid (positive control), read-out: TNF-α production inhibition grade
In short: as §2

[4] = tested on: U937 cells (human monocytic cell line); test: Pam2CSK4-induced TNF-α secretion inhibition in PMA-differentiated U937 cells; details: U-937, U937 cells differentiated with PMA, read-out: TNF-α production inhibition grade (IC50)
In short: as §1

SMILES | IC50 [1] | inhibition at 1 µM [2] | inhibition at 1 µM [3] | IC50 [4]
C[C@H](CCC(=O)NCCC(=O)O)[C@H]1CC[C@H]2[C@@H]3[C@H](O)C[C@@H]4C[C@H](O)CC[C@]4(C)[C@H]3C[C@H](O)[C@]12C [NC20002] | 100 to 200 nM | 50 to 100% | 50 to 100% | ≥ 2000 nM
C[C@H](CCC(=O)N(C)CCS(=O)(=O)O)[C@H]1CC[C@H]2[C@@H]3[C@H](O)C[C@@H]4C[C@H](O)CC[C@]4(C)[C@H]3C[C@H](O)[C@]12C [NC20004] | < 50 nM | > 100% | < 20% | 500 to 1000 nM
C[C@H](CCC(=O)N(CCS(=O)(=O)O)Cc1ccccc1)[C@H]1CC[C@H]2[C@@H]3[C@H](O)C[C@@H]4C[C@H](O)CC[C@]4(C)[C@H]3C[C@H](O)[C@]12C [NC20005] | 50 to 100 nM | > 100% | < 20% | 500 to 1000 nM
C[C@H](CCC(=O)N(CCO)CCS(=O)(=O)O)[C@H]1CC[C@H]2[C@@H]3[C@H](O)C[C@@H]4C[C@H](O)CC[C@]4(C)[C@H]3C[C@H](O)[C@]12C [NC20006] | < 50 nM | > 100% | < 20% | 1000 to 2000 nM
CC(C)N(CCS(=O)(=O)O)C(=O)CC[C@@H](C)[C@H]1CC[C@H]2[C@@H]3[C@H](O)C[C@@H]4C[C@H](O)CC[C@]4(C)[C@H]3C[C@H](O)[C@]12C [NC20007] | < 50 nM | > 100% | < 20% | 1000 to 2000 nM
C[C@H](CCC(=O)N(CCS(=O)(=O)O)C1CCOCC1)[C@H]1CC[C@H]2[C@@H]3[C@H](O)C[C@@H]4C[C@H](O)CC[C@]4(C)[C@H]3C[C@H](O)[C@]12C [NC20008] | 50 to 100 nM | > 100% | < 20% | 500 to 1000 nM
C[C@H](CCC(=O)N1CCC[C@H](S(=O)(=O)O)C1)[C@H]1CC[C@H]2[C@@H]3[C@H](O)C[C@@H]4C[C@H](O)CC[C@]4(C)[C@H]3C[C@H](O)[C@]12C [NC20009] | < 50 nM | < 20% | < 20% | ≥ 2000 nM
C[C@H](CCC(=O)N1CCC[C@@H](S(=O)(=O)O)C1)[C@H]1CC[C@H]2[C@@H]3[C@H](O)C[C@@H]4C[C@H](O)CC[C@]4(C)[C@H]3C[C@H](O)[C@]12C [NC20010] | < 50 nM | 50 to 100% | < 20% | 1000 to 2000 nM
C[C@H](CCC(=O)N1CCC(S(=O)(=O)O)CC1)[C@H]1CC[C@H]2[C@@H]3[C@H](O)C[C@@H]4C[C@H](O)CC[C@]4(C)[C@H]3C[C@H](O)[C@]12C [NC20011] | 50 to 100 nM | 50 to 100% | < 20% | ≥ 2000 nM
C[C@H](CCC(=O)N1CC(S(=O)(=O)O)C1)[C@H]1CC[C@H]2[C@@H]3[C@H](O)C[C@@H]4C[C@H](O)CC[C@]4(C)[C@H]3C[C@H](O)[C@]12C [NC20012] | < 50 nM | > 100% | < 20% | 500 to 1000 nM
C[C@H](CCC(=O)NC(C)(C)CS(=O)(=O)O)[C@H]1CC[C@H]2[C@@H]3[C@H](O)C[C@@H]4C[C@H](O)CC[C@]4(C)[C@H]3C[C@H](O)[C@]12C [NC20013] | < 50 nM | > 100% | < 20% | 1000 to 2000 nM
C[C@H](CCC(=O)N[C@@H](Cc1ccccc1)CS(=O)(=O)O)[C@H]1CC[C@H]2[C@@H]3[C@H](O)C[C@@H]4C[C@H](O)CC[C@]4(C)[C@H]3C[C@H](O)[C@]12C [NC20014] | < 50 nM | > 100% | < 20% | 500 to 1000 nM
C[C@H](CCC(=O)N[C@H](Cc1ccccc1)CS(=O)(=O)O)[C@H]1CC[C@H]2[C@@H]3[C@H](O)C[C@@H]4C[C@H](O)CC[C@]4(C)[C@H]3C[C@H](O)[C@]12C [NC20015] | < 50 nM | > 100% | < 20% | < 500 nM
CC(C)[C@@H](CS(=O)(=O)O)NC(=O)CC[C@@H](C)[C@H]1CC[C@H]2[C@@H]3[C@H](O)C[C@@H]4C[C@H](O)CC[C@]4(C)[C@H]3C[C@H](O)[C@]12C [NC20016] | < 50 nM | > 100% | < 20% | 1000 to 2000 nM
CC(C)[C@H](CS(=O)(=O)O)NC(=O)CC[C@@H](C)[C@H]1CC[C@H]2[C@@H]3[C@H](O)C[C@@H]4C[C@H](O)CC[C@]4(C)[C@H]3C[C@H](O)[C@]12C [NC20017] | ≥ 200 nM | 50 to 100% | < 20% | < 500 nM
C[C@H](CCC(=O)N[C@H](CS(=O)(=O)O)c1ccccc1)[C@H]1CC[C@H]2[C@@H]3[C@H](O)C[C@@H]4C[C@H](O)CC[C@]4(C)[C@H]3C[C@H](O)[C@]12C [NC20018] | ≥ 200 nM | < 20% | < 20% | 1000 to 2000 nM
C[C@H](CCC(=O)N[C@@H](CS(=O)(=O)O)c1ccccc1)[C@H]1CC[C@H]2[C@@H]3[C@H](O)C[C@@H]4C[C@H](O)CC[C@]4(C)[C@H]3C[C@H](O)[C@]12C [NC20019] | 50 to 100 nM | < 20% | < 20% | 1000 to 2000 nM
C[C@H](CCC(=O)N1CCC[C@@H]1CS(=O)(=O)O)[C@H]1CC[C@H]2[C@@H]3[C@H](O)C[C@@H]4C[C@H](O)CC[C@]4(C)[C@H]3C[C@H](O)[C@]12C [NC20020] | < 50 nM | 20 to 50% | 50 to 100% | ≥ 2000 nM
C[C@H](CCC(=O)N1CCC[C@H]1CS(=O)(=O)O)[C@H]1CC[C@H]2[C@@H]3[C@H](O)C[C@@H]4C[C@H](O)CC[C@]4(C)[C@H]3C[C@H](O)[C@]12C [NC20021] | 50 to 100 nM | < 20% | < 20% | 1000 to 2000 nM
C[C@H](CCC(=O)NC[C@H](C)S(=O)(=O)O)[C@H]1CC[C@H]2[C@@H]3[C@H](O)C[C@@H]4C[C@H](O)CC[C@]4(C)[C@H]3C[C@H](O)[C@]12C [NC20022] | < 50 nM | < 20% | < 20% | 1000 to 2000 nM
C[C@H](CCC(=O)NC[C@@H](C)S(=O)(=O)O)[C@H]1CC[C@H]2[C@@H]3[C@H](O)C[C@@H]4C[C@H](O)CC[C@]4(C)[C@H]3C[C@H](O)[C@]12C [NC20023] | 50 to 100 nM | < 20% | < 20% | ≥ 2000 nM
C[C@H](CCC(=O)N[C@@H](CO)CS(=O)(=O)O)[C@H]1CC[C@H]2[C@@H]3[C@H](O)C[C@@H]4C[C@H](O)CC[C@]4(C)[C@H]3C[C@H](O)[C@]12C [NC20024] | ≥ 200 nM | 20 to 50% | < 20% | < 500 nM
C[C@H](CCC(=O)N[C@H](CO)CS(=O)(=O)O)[C@H]1CC[C@H]2[C@@H]3[C@H](O)C[C@@H]4C[C@H](O)CC[C@]4(C)[C@H]3C[C@H](O)[C@]12C [NC20025] | ≥ 200 nM | < 20% | < 20% | ≥ 2000 nM
C[C@H](CCC(=O)N[C@@H]1CCCC[C@@H]1S(=O)(=O)O)[C@H]1CC[C@H]2[C@@H]3[C@H](O)C[C@@H]4C[C@H](O)CC[C@]4(C)[C@H]3C[C@H](O)[C@]12C [NC20026] | 100 to 200 nM | 50 to 100% | < 20% | 1000 to 2000 nM
C[C@H](CCC(=O)N[C@H]1CCCC[C@H]1S(=O)(=O)O)[C@H]1CC[C@H]2[C@@H]3[C@H](O)C[C@@H]4C[C@H](O)CC[C@]4(C)[C@H]3C[C@H](O)[C@]12C [NC20027] | < 50 nM | > 100% | < 20% | ≥ 2000 nM
C[C@H](CCC(=O)N[C@@H](C)CS(=O)(=O)O)[C@H]1CC[C@H]2[C@@H]3[C@H](O)C[C@@H]4C[C@H](O)CC[C@]4(C)[C@H]3C[C@H](O)[C@]12C [NC20028] | ≥ 200 nM | < 20% | < 20% | 1000 to 2000 nM
C[C@H](CS(=O)(=O)O)NC(=O)CC[C@@H](C)[C@H]1CC[C@H]2[C@@H]3[C@H](O)C[C@@H]4C[C@H](O)CC[C@]4(C)[C@H]3C[C@H](O)[C@]12C [NC20029] | 50 to 100 nM | < 20% | < 20% | < 500 nM
CC(C)C[C@@H](CS(=O)(=O)O)NC(=O)CC[C@@H](C)[C@H]1CC[C@H]2[C@@H]3[C@H](O)C[C@@H]4C[C@H](O)CC[C@]4(C)[C@H]3C[C@H](O)[C@]12C [NC20030] | ≥ 200 nM | < 20% | < 20% | < 500 nM
